Measured values published in the supplement of paper PMC10307832.

How the values were obtained:
Test in all cases: relative viability (nuclei count vs DMSO), 5 days (fraction); higher = more cells survive
[1] = compound: CC1=CC(=NN1)NC2=CC(=NC(=N2)/C=C/C3=CC=CC=C3)N4CCN(CC4)C + Cc1nc(NC(=O)N2CCC[C@H]2C(N)=O)sc1-c1ccnc(C(C)(C)C(F)(F)F)c1 [Alpelisib] (partner 2 µM)
Summary of the method: (§1)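 Lung cancer cell lines, seeded in 1536-well plates, were treated the following day by pin tool with a single drug or with five library-drug doses (not always all listed) in √10 steps on top of a fixed anchor-drug dose. Cells were fixed and nuclei stained in one step after 5 days, and nuclei were counted. Relative viability is the nuclei count for treated wells divided by that for vehicle wells, reported as medians of duplicate plates.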

Obatoclax + Pictilisib = compound: COC1=CC(c2cc3ccccc3[nH]2)=N/C1=C\c1[nH]c(C)cc1C [Obatoclax] + CS(=O)(=O)N1CCN(Cc2cc3nc(-c4cccc5[nH]ncc45)nc(N4CCOCC4)c3s2)CC1 [Pictilisib] (partner 1 µM)
Summary of the method: as §1

Obatoclax + Decitabine = compound: COC1=CC(c2cc3ccccc3[nH]2)=N/C1=C\c1[nH]c(C)cc1C [Obatoclax] + Nc1ncn([C@H]2C[C@H](O)[C@@H](CO)O2)c(=O)n1 [Decitabine] (partner 2 µM)
Summary of the method: as §1

Obatoclax + Vorinostat = compound: COC1=CC(c2cc3ccccc3[nH]2)=N/C1=C\c1[nH]c(C)cc1C [Obatoclax] + O=C(CCCCCCC(=O)Nc1ccccc1)NO [Vorinostat] (partner 1 µM)
Summary of the method: as §1

## LXF-289
[1]; first compound 0.08 µM
  relative viability: 1.07
[1]; first compound 0.253 µM
  relative viability: 1.06
[1]; first compound 0.8 µM
  relative viability: 0.919
[1]; first compound 2.53 µM
  relative viability: 0.199
[1]; first compound 8 µM
  relative viability: 0.0577
Obatoclax + Pictilisib; first compound 0.01 µM
  relative viability: 0.778
Obatoclax + Pictilisib; first compound 0.03162 µM
  relative viability: 0.773
Obatoclax + Pictilisib; first compound 0.1 µM
  relative viability: 0.751
Obatoclax + Pictilisib; first compound 0.3162 µM
  relative viability: 0.72
Obatoclax + Pictilisib; first compound 1 µM
  relative viability: 0.694
Obatoclax + Decitabine; first compound 0.01 µM
  relative viability: 0.346
Obatoclax + Decitabine; first compound 0.03162 µM
  relative viability: 0.385
Obatoclax + Decitabine; first compound 0.1 µM
  relative viability: 0.372
Obatoclax + Decitabine; first compound 0.3162 µM
  relative viability: 0.342
Obatoclax + Decitabine; first compound 1 µM
  relative viability: 0.408
Obatoclax + Vorinostat; first compound 0.01 µM
  relative viability: 0.714
Obatoclax + Vorinostat; first compound 0.03162 µM
  relative viability: 0.725
Obatoclax + Vorinostat; first compound 0.1 µM
  relative viability: 0.798
Obatoclax + Vorinostat; first compound 0.3162 µM
  relative viability: 0.775
Obatoclax + Vorinostat; first compound 1 µM
  relative viability: 0.601

## NCI-H23
[1]; first compound 0.08 µM
  relative viability: 0.55
[1]; first compound 0.253 µM
  relative viability: 0.859
[1]; first compound 0.8 µM
  relative viability: 0.704
[1]; first compound 2.53 µM
  relative viability: 0.265
[1]; first compound 8 µM
  relative viability: 0.12
Obatoclax + Pictilisib; first compound 0.01 µM
  relative viability: 0.43
Obatoclax + Pictilisib; first compound 0.03162 µM
  relative viability: 0.442
Obatoclax + Pictilisib; first compound 0.1 µM
  relative viability: 0.57
Obatoclax + Pictilisib; first compound 0.3162 µM
  relative viability: 0.4
Obatoclax + Pictilisib; first compound 1 µM
  relative viability: 0.197
Obatoclax + Decitabine; first compound 0.01 µM
  relative viability: 0.328
Obatoclax + Decitabine; first compound 0.03162 µM
  relative viability: 0.272
Obatoclax + Decitabine; first compound 0.1 µM
  relative viability: 0.369
Obatoclax + Decitabine; first compound 0.3162 µM
  relative viability: 0.286
Obatoclax + Decitabine; first compound 1 µM
  relative viability: 0.349
Obatoclax + Vorinostat; first compound 0.01 µM
  relative viability: 0.593
Obatoclax + Vorinostat; first compound 0.03162 µM
  relative viability: 0.755
Obatoclax + Vorinostat; first compound 0.1 µM
  relative viability: 0.569
Obatoclax + Vorinostat; first compound 0.3162 µM
  relative viability: 0.653
Obatoclax + Vorinostat; first compound 1 µM
  relative viability: 0.316

## NCI-H322M
[1]; first compound 0.08 µM
  relative viability: 0.716
[1]; first compound 0.253 µM
  relative viability: 0.792
[1]; first compound 0.8 µM
  relative viability: 0.757
[1]; first compound 2.53 µM
  relative viability: 0.436
[1]; first compound 8 µM
  relative viability: 0.204
Obatoclax + Pictilisib; first compound 0.01 µM
  relative viability: 0.545
Obatoclax + Pictilisib; first compound 0.03162 µM
  relative viability: 0.484
Obatoclax + Pictilisib; first compound 0.1 µM
  relative viability: 0.665
Obatoclax + Pictilisib; first compound 0.3162 µM
  relative viability: 0.467
Obatoclax + Pictilisib; first compound 1 µM
  relative viability: 0.5
Obatoclax + Decitabine; first compound 0.01 µM
  relative viability: 0.701
Obatoclax + Decitabine; first compound 0.03162 µM
  relative viability: 0.687
Obatoclax + Decitabine; first compound 0.1 µM
  relative viability: 0.856
Obatoclax + Decitabine; first compound 0.3162 µM
  relative viability: 0.818
Obatoclax + Decitabine; first compound 1 µM
  relative viability: 0.662
Obatoclax + Vorinostat; first compound 0.01 µM
  relative viability: 0.845
Obatoclax + Vorinostat; first compound 0.03162 µM
  relative viability: 0.799
Obatoclax + Vorinostat; first compound 0.1 µM
  relative viability: 1.2
Obatoclax + Vorinostat; first compound 0.3162 µM
  relative viability: 0.966
Obatoclax + Vorinostat; first compound 1 µM
  relative viability: 0.945

## NCI-H358
[1]; first compound 0.08 µM
  relative viability: 0.934
[1]; first compound 0.253 µM
  relative viability: 0.821
[1]; first compound 0.8 µM
  relative viability: 0.539
[1]; first compound 2.53 µM
  relative viability: 0.142
[1]; first compound 8 µM
  relative viability: 0.153
Obatoclax + Pictilisib; first compound 0.01 µM
  relative viability: 0.322
Obatoclax + Pictilisib; first compound 0.03162 µM
  relative viability: 0.297
Obatoclax + Pictilisib; first compound 0.1 µM
  relative viability: 0.261
Obatoclax + Pictilisib; first compound 0.3162 µM
  relative viability: 0.288
Obatoclax + Pictilisib; first compound 1 µM
  relative viability: 0.23
Obatoclax + Decitabine; first compound 0.01 µM
  relative viability: 0.213
Obatoclax + Decitabine; first compound 0.03162 µM
  relative viability: 0.187
Obatoclax + Decitabine; first compound 0.1 µM
  relative viability: 0.232
Obatoclax + Decitabine; first compound 0.3162 µM
  relative viability: 0.157
Obatoclax + Decitabine; first compound 1 µM
  relative viability: 0.137
Obatoclax + Vorinostat; first compound 0.01 µM
  relative viability: 0.661
Obatoclax + Vorinostat; first compound 0.03162 µM
  relative viability: 0.73
Obatoclax + Vorinostat; first compound 0.1 µM
  relative viability: 0.595
Obatoclax + Vorinostat; first compound 0.3162 µM
  relative viability: 0.183
Obatoclax + Vorinostat; first compound 1 µM
  relative viability: 0.141

## NCI-H441
[1]; first compound 0.08 µM
  relative viability: 0.632
[1]; first compound 0.253 µM
  relative viability: 0.578
[1]; first compound 0.8 µM
  relative viability: 0.484
[1]; first compound 2.53 µM
  relative viability: 0.157
[1]; first compound 8 µM
  relative viability: 0.121
Obatoclax + Pictilisib; first compound 0.01 µM
  relative viability: 0.442
Obatoclax + Pictilisib; first compound 0.03162 µM
  relative viability: 0.451
Obatoclax + Pictilisib; first compound 0.1 µM
  relative viability: 0.412
Obatoclax + Pictilisib; first compound 0.3162 µM
  relative viability: 0.338
Obatoclax + Pictilisib; first compound 1 µM
  relative viability: 0.348
Obatoclax + Decitabine; first compound 0.01 µM
  relative viability: 0.213
Obatoclax + Decitabine; first compound 0.03162 µM
  relative viability: 0.272
Obatoclax + Decitabine; first compound 0.1 µM
  relative viability: 0.287
Obatoclax + Decitabine; first compound 0.3162 µM
  relative viability: 0.2
Obatoclax + Decitabine; first compound 1 µM
  relative viability: 0.194
Obatoclax + Vorinostat; first compound 0.01 µM
  relative viability: 0.768
Obatoclax + Vorinostat; first compound 0.03162 µM
  relative viability: 0.837
Obatoclax + Vorinostat; first compound 0.1 µM
  relative viability: 0.728
Obatoclax + Vorinostat; first compound 0.3162 µM
  relative viability: 0.733
Obatoclax + Vorinostat; first compound 1 µM
  relative viability: 0.645

## NCI-H460
[1]; first compound 0.08 µM
  relative viability: 0.388
[1]; first compound 0.253 µM
  relative viability: 0.581
[1]; first compound 0.8 µM
  relative viability: 0.183
[1]; first compound 2.53 µM
  relative viability: 0.0086
[1]; first compound 8 µM
  relative viability: 0.0052
Obatoclax + Pictilisib; first compound 0.01 µM
  relative viability: 0.401
Obatoclax + Pictilisib; first compound 0.03162 µM
  relative viability: 0.294
Obatoclax + Pictilisib; first compound 0.1 µM
  relative viability: 0.136
Obatoclax + Pictilisib; first compound 0.3162 µM
  relative viability: 0.344
Obatoclax + Pictilisib; first compound 1 µM
  relative viability: 0.329
Obatoclax + Decitabine; first compound 0.01 µM
  relative viability: 0.521
Obatoclax + Decitabine; first compound 0.03162 µM
  relative viability: 0.385
Obatoclax + Decitabine; first compound 0.1 µM
  relative viability: 0.522
Obatoclax + Decitabine; first compound 0.3162 µM
  relative viability: 0.133
Obatoclax + Decitabine; first compound 1 µM
  relative viability: 0.0944
Obatoclax + Vorinostat; first compound 0.01 µM
  relative viability: 0.706
Obatoclax + Vorinostat; first compound 0.03162 µM
  relative viability: 0.717
Obatoclax + Vorinostat; first compound 0.1 µM
  relative viability: 0.692
Obatoclax + Vorinostat; first compound 0.3162 µM
  relative viability: 0.103
Obatoclax + Vorinostat; first compound 1 µM
  relative viability: 0.0463

## NCI-H520
[1]; first compound 0.08 µM
  relative viability: 0.891
[1]; first compound 0.253 µM
  relative viability: 0.937
[1]; first compound 0.8 µM
  relative viability: 0.892
[1]; first compound 2.53 µM
  relative viability: 0.498
[1]; first compound 8 µM
  relative viability: 0.166
Obatoclax + Pictilisib; first compound 0.01 µM
  relative viability: 0.3
Obatoclax + Pictilisib; first compound 0.03162 µM
  relative viability: 0.336
Obatoclax + Pictilisib; first compound 0.1 µM
  relative viability: 0.318
Obatoclax + Pictilisib; first compound 0.3162 µM
  relative viability: 0.268
Obatoclax + Pictilisib; first compound 1 µM
  relative viability: 0.245
Obatoclax + Decitabine; first compound 0.01 µM
  relative viability: 0.441
Obatoclax + Decitabine; first compound 0.03162 µM
  relative viability: 0.309
Obatoclax + Decitabine; first compound 0.1 µM
  relative viability: 0.631
Obatoclax + Decitabine; first compound 0.3162 µM
  relative viability: 0.507
Obatoclax + Decitabine; first compound 1 µM
  relative viability: 0.292
Obatoclax + Vorinostat; first compound 0.01 µM
  relative viability: 0.685
Obatoclax + Vorinostat; first compound 0.03162 µM
  relative viability: 0.712
Obatoclax + Vorinostat; first compound 0.1 µM
  relative viability: 0.764
Obatoclax + Vorinostat; first compound 0.3162 µM
  relative viability: 0.542
Obatoclax + Vorinostat; first compound 1 µM
  relative viability: 0.315

## NCI-H596
[1]; first compound 0.08 µM
  relative viability: 0.5
[1]; first compound 0.253 µM
  relative viability: 0.577
[1]; first compound 0.8 µM
  relative viability: 0.565
[1]; first compound 2.53 µM
  relative viability: 0.367
[1]; first compound 8 µM
  relative viability: 0.121
Obatoclax + Pictilisib; first compound 0.01 µM
  relative viability: 0.416
Obatoclax + Pictilisib; first compound 0.03162 µM
  relative viability: 0.357
Obatoclax + Pictilisib; first compound 0.1 µM
  relative viability: 0.365
Obatoclax + Pictilisib; first compound 0.3162 µM
  relative viability: 0.359
Obatoclax + Pictilisib; first compound 1 µM
  relative viability: 0.296
Obatoclax + Decitabine; first compound 0.01 µM
  relative viability: 0.953
Obatoclax + Decitabine; first compound 0.03162 µM
  relative viability: 0.986
Obatoclax + Decitabine; first compound 0.1 µM
  relative viability: 1.04
Obatoclax + Decitabine; first compound 0.3162 µM
  relative viability: 0.848
Obatoclax + Decitabine; first compound 1 µM
  relative viability: 0.79
Obatoclax + Vorinostat; first compound 0.01 µM
  relative viability: 0.555
Obatoclax + Vorinostat; first compound 0.03162 µM
  relative viability: 0.467
Obatoclax + Vorinostat; first compound 0.1 µM
  relative viability: 0.543
Obatoclax + Vorinostat; first compound 0.3162 µM
  relative viability: 0.585
Obatoclax + Vorinostat; first compound 1 µM
  relative viability: 0.296
